What is called IC50 is the point on the concentration scale where inhibition reaches its midpoint. The term Cmax denotes the highest concentration seen after dosing. One may read the half-life as the time needed for the level to fall by half in the phase considered. Broadly, the Tmax is the time from dosing to the highest level.

Like-named read-outs stand apart in the source and are kept apart here. Bounds are passed on as bounds.

The values below come from patent publication US10344060B2 (priority 2013, dated 2019).

Data set [1] relates to TTX-sensitive Nav channels in Sprague Dawley rat DRG neuron.
Data set [2] deals with T1, hNav1.7 (Homo sapiens, UniProt Q15858). As to the kind of experiment: cell-based. It counts as cell-based. The settings on record: Table 15; read-out: PX hNav1.7 Tonic IC50.
T1 sequence (Q15858 whole entry): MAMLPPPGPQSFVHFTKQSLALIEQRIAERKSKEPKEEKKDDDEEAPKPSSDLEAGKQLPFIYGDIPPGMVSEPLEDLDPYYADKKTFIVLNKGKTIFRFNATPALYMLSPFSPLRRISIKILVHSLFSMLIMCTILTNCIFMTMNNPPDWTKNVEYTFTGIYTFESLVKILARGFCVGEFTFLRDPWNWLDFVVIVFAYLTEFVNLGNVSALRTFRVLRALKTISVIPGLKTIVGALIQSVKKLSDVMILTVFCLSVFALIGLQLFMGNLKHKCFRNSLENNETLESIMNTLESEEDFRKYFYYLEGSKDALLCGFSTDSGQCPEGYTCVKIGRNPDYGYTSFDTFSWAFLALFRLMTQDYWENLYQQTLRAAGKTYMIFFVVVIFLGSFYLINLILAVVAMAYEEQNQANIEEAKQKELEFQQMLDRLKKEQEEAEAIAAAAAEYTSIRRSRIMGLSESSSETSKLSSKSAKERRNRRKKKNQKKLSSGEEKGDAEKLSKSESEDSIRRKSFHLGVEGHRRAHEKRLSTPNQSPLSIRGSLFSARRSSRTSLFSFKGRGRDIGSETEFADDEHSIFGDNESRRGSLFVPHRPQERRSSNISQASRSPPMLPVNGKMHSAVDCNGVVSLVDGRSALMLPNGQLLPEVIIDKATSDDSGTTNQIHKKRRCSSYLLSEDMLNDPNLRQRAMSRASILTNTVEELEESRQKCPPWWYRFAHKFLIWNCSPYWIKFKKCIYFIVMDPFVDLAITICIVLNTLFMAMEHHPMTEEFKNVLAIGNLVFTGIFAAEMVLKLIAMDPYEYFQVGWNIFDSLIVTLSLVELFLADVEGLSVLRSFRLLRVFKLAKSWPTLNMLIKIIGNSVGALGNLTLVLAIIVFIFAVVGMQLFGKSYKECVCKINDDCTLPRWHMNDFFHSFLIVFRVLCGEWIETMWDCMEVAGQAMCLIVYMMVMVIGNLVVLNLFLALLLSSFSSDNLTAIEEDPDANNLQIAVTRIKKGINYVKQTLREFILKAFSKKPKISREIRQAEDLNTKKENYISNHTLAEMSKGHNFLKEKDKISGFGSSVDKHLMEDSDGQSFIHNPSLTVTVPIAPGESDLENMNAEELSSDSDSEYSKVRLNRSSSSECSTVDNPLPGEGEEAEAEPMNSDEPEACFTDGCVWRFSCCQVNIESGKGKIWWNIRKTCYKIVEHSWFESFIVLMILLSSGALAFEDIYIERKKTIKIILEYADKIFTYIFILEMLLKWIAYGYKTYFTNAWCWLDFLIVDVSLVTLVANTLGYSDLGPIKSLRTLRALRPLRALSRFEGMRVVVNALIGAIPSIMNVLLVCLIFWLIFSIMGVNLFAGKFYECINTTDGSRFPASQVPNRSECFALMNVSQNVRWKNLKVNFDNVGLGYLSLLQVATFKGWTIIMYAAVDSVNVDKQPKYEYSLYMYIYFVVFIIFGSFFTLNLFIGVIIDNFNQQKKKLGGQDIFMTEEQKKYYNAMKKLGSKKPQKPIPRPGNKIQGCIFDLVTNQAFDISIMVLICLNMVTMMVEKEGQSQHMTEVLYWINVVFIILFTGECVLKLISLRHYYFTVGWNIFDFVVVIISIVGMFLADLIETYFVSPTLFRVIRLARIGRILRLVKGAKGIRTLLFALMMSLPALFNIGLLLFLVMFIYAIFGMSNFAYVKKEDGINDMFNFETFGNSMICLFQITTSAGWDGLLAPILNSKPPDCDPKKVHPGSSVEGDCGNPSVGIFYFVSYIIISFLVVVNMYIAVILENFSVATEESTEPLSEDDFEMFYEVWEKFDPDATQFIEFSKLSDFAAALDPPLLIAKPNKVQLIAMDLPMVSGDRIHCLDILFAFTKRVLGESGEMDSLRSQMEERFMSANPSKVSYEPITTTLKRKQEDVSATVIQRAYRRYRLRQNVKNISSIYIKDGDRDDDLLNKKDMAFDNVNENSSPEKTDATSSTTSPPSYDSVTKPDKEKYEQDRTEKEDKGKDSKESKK
Data set [3] has as its target T2, hNav1.5 (Homo sapiens, UniProt Q14524). Description: cell-based. Particulars: Table 12; ratio of PX tonic IC50 values.
Data set [4] deals with T3, hNav1.4 (Homo sapiens, UniProt P35499). As to the kind of experiment: cell-based. The settings on record: Table 12; ratio of PX tonic IC50 values. Format: cell-based.
Data set [5] addresses hNav1.6 (Homo sapiens, UniProt Q9UQD0). Description: cell-based. It counts as cell-based. The settings on record: for Nav1.6/Nav1.7 / IC50: Table 15; for Nav1.6/Nav1.7: ratio of PX tonic IC50 values; for IC50: read-out: PX hNav1.6 Tonic IC50.
For data set [6], the target named is T1, hNav1.7. Description: cell-based. It counts as cell-based.
The target of data set [7] is hNav1.8 (Homo sapiens, UniProt Q9Y5Y9). Description: cell-based. It counts as cell-based.
hNav1.8 (Homo sapiens, UniProt Q9Y5Y9), sequence (Q9Y5Y9 whole entry): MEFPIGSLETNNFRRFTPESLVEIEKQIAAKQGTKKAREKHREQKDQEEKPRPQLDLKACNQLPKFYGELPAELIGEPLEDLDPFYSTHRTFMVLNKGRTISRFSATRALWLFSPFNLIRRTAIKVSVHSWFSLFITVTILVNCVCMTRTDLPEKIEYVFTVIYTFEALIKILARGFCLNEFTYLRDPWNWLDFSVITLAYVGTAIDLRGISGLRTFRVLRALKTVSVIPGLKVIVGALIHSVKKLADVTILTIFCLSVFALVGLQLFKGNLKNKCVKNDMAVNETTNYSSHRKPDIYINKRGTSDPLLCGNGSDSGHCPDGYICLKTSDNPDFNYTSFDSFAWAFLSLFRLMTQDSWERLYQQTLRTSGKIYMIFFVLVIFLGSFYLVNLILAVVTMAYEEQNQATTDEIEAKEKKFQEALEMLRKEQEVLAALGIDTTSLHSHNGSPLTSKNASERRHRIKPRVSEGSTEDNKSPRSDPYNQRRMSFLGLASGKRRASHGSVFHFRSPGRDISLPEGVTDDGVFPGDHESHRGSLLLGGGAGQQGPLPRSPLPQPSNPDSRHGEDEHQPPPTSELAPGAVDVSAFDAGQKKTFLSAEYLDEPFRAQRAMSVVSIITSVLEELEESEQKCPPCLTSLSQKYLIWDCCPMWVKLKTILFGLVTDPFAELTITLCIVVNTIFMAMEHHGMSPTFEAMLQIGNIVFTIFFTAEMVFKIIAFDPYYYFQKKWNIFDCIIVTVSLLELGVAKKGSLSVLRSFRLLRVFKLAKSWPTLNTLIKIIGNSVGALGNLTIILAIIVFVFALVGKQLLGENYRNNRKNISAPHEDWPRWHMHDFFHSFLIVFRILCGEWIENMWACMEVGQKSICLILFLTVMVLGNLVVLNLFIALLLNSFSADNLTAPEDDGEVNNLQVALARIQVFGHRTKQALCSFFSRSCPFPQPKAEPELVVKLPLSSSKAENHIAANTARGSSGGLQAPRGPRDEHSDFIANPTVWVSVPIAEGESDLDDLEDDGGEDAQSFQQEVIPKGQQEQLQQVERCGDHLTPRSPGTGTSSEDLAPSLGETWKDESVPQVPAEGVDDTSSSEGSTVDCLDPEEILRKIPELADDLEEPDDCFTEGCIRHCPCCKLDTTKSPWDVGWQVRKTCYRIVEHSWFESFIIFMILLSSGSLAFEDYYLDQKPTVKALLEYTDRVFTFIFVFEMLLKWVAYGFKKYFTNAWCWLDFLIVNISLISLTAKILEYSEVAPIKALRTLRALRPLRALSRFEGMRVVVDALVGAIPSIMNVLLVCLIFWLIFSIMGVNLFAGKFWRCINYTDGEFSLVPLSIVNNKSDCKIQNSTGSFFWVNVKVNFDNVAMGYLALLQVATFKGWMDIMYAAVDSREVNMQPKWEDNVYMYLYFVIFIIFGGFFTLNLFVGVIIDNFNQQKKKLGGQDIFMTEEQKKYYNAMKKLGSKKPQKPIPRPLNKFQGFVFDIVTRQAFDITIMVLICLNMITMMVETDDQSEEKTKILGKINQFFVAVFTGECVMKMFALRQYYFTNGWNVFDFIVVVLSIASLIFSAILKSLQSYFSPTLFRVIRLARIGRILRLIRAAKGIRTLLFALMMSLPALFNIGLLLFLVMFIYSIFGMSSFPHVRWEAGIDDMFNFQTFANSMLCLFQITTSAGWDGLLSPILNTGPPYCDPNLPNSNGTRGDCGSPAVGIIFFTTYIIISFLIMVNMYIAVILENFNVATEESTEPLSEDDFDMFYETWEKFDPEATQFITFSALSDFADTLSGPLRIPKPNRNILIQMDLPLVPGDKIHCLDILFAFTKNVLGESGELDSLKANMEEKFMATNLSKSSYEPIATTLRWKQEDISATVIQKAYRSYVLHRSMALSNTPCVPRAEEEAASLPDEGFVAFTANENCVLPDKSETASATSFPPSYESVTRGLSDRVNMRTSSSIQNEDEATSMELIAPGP
In data set [8] the test system is hNav1.8. As to the kind of experiment: cell-based. Format: cell-based, human. Particulars: partially inactivated, hNav1.8 / hNav1.7.
The target in data set [9] is T2, hNav1.5. As to the kind of experiment: cell-based. It counts as cell-based.
For data set [10], the target named is T3, hNav1.4. Description: cell-based. Format: cell-based.
Data set [11] concerns the target hNav1.3 (Homo sapiens, UniProt Q9NY46). Description: cell-based. It counts as cell-based.
Data set [12] deals with human Nav1.1 (Homo sapiens, UniProt P35498). Description: cell-based. It counts as cell-based.
Data set [13] deals with human Nav1.2 (Homo sapiens, UniProt Q99250). Description: cell-based. Format: cell-based.
In data set [14] the target is human Nav1.6 (Homo sapiens, UniProt Q9UQD0). Description: cell-based. It counts as cell-based.
For data set [15], the system named is TTX-sensitive Nav channels in mouse DRG neuron.
A short description of data set [16]: in vivo. Particulars: male, CD-1, mouse, sc.
For data set [17] the following is noted: for mean Cmax over the rat DRG Nav1.7: Sprague-Dawley rats.
A short description of data set [18]: in vivo. Particulars: female, Sprague-Dawley, rat, sc.
Data set [19] deals with male CD-1 mice. Particulars: mouse, in vivo.

For the compound `C#CC[C@@H]1NC(=O)[C@@H]2CSSC[C@H](NC(=O)[C@H](Cc3ccc(O)cc3)NC(=O)[C@@H](N)CC#N)C(=O)N[C@@H](CCC(N)=O)C(=O)N[C@@H](CCCCN)C(=O)N[C@@H](Cc3c[nH]c4ccccc34)C(=O)N[C@@H](CCCC)C(=O)N[C@@H](Cc3c[nH]c4ccccc34)C(=O)N[C@@H]([C@@H](C)O)C(=O)N[C@H]3CSSC[C@H](NC(=O)[C@H](CCCNC(=N)N)NC(=O)[C@H](CC(C)C)NC(=O)CNC1=O)C(=O)N[C@@H](CCCCN)C(=O)N[C@@H](CC(C)C)C(=O)N[C@@H](Cc1c[nH]c4ccccc14)C(=O)N[C@H](C(=O)N[C@@H](CCCNC(=N)N)C(=O)N[C@@H](CCCCN)C(=O)N[C@@H](CCC(=O)O)C(=O)N[C@H](C(N)=O)[C@@H](C)CC)CSSC[C@H](NC(=O)[C@H](C)NC(=O)[C@H](CCCNC(=N)N)NC(=O)[C@H](CCCCN)NC(=O)[C@H](CO)NC(=O)[C@H](CC(=O)O)NC3=O)C(=O)N2` [CyA-[Nle6,Glu28]JzTx-V(1-29)], half-maximal inhibition in data set [1] (IC50) was put at 9.25 nM.
With `C#CC[C@H](N)C(=O)N[C@@H](Cc1ccc(O)cc1)C(=O)N[C@H]1CSSC[C@@H]2NC(=O)[C@@H]3CSSC[C@@H](C(=O)N[C@@H](CCCNC(=N)N)C(=O)N[C@@H](CCCCN)C(=O)N[C@@H](CCC(=O)O)C(=O)N[C@H](C(N)=O)[C@@H](C)CC)NC(=O)[C@H](Cc4c[nH]c5ccccc45)NC(=O)[C@H](CC(C)C)NC(=O)[C@H](CCCCN)NC(=O)[C@H](CSSC[C@H](NC(=O)[C@H]([C@@H](C)O)NC(=O)[C@H](Cc4c[nH]c5ccccc45)NC(=O)[C@H](CCCC)NC(=O)[C@H](Cc4c[nH]c5ccccc45)NC(=O)[C@H](CCCCN)NC(=O)[C@H](CCC(N)=O)NC1=O)C(=O)N[C@@H](CC(=O)O)C(=O)N[C@@H](CO)C(=O)N[C@@H](CCCCN)C(=O)N[C@@H](CCCNC(=N)N)C(=O)N[C@@H](C)C(=O)N3)NC(=O)[C@H](CCCNC(=N)N)NC(=O)[C@H](CC(C)C)NC(=O)CNC(=O)[C@H](CCC(=O)O)NC2=O` [compound 328], the IC50 is 0.548 nM in [2]; 183 nM in data set [5]; 0.62 nM in [6] (read-out: IC50 of hNav1.7 inhibition); more than 1000 nM in data set [7]; more than 1000 nM in [7] (WCPC, partially inactivated, hNav1.8, n=2, read-out: Mean IC50); more than 1000 nM in data set [9] (WCPC, partially inactivated, hNav1.5, n=2, read-out: Mean IC50). Further, the IC50 in data set [9] (manual WCPC, ~20% inactivation, read-out: IC50 of hNav1.5 inhibition) is more than 1000 nM; in data set [10] (manual WCPC, partially inactivated state, read-out: IC50 of hNav1.4 inhibition), 74.6 nM; in [11] (manual WCPC, ~20% inactivation, read-out: IC50 of hNav1.3 inhibition), 52.5 nM; in [12] (manual patch clamp, ~20% inactivation, read-out: IC50 hNav1.1) it was 27.2 nM; in data set [13] (manual patch clamp, ~20% inactivation, read-out: IC50 hNav1.2), 44.4 nM; in [14] (manual patch clamp, ~20% inactivation, read-out: IC50 hNav1.6) it was 19.4 nM. Also, the IC50 in data set [15] was 11.2 nM; in data set [1], 30.7 nM. Besides, the Nav1.5/Nav1.7 in [3] came to 5854. For the same compound, in data set [4], the Nav1.4/Nav1.7 worked out at 253. The “selectivity for Nav1.7 over Nav1.6” value in data set [5] (PatchXpress) worked out at 334 fold. In data set [5], the Nav1.6/Nav1.7 was found to be 334. Further, in data set [6] (100 nM), the “block of hNav1.7 current” value is listed as “approximately 95%”. In data set [6] (manual WCPC), the “potency against hNav1.7, in words” value is “sub-nanomolar potency”. For the same compound, in [6] (manual WCPC, hNav1.1-hNav1.8), the “selectivity for hNav1.7 against other human VGSCs” value is more than 30 fold. In addition, the “block of TTX-resistant hNav1.8 current” value in data set [7] (1000 nM) is “approximately 30%”. The 1.x/1.7 is given as more than 1613 in data set [8]; more than 1613 in [9] (partially inactivated, hNav1.5 / hNav1.7); 120 in data set [10] (partially inactivated, hNav1.4 / hNav1.7); 85 in data set [11] (partially inactivated, hNav1.3 / hNav1.7); 44 in data set [12] (partially inactivated, hNav1.1 / hNav1.7); 72 in [13] (partially inactivated, hNav1.2 / hNav1.7). Also, the 1.x/1.7 came out at 31 in data set [14] (partially inactivated, hNav1.6 / hNav1.7); 18 in data set [15] (partially inactivated, mTTX-S / hNav1.7); 50 in data set [1] (partially inactivated, rTTX-S / hNav1.7). For the same compound, the “block of hNav1.5 current” value in data set [9] (1000 nM, held at −77 mV) is “less than 10%”. Moreover, the “block of hNav1.4 current” value in data set [10] (1000 nM, held at −78 mV) is “approximately 90%”. For the same compound, in data set [11] (1000 nM, held at −68 mV), the “block of hNav1.3 current” value is given as “approximately 90%”. Moreover, the “block of hNav1.1 current” value in data set [12] (1000 nM, held at −70 mV) is on record as “approximately 95%”. The “block of hNav1.2 current, in words” value in [13] (1000 nM, held at −65 mV) was “blocks the majority of Nav current”. In addition, the “block of hNav1.6 current, in words” value in data set [14] (1000 nM, held at −67 mV) was “blocks the majority of Nav current”. For the same compound, the “block of TTX-sensitive Nav current” value in data set [15] (300 nM, C57 Black 6 mouse DRG neuron) was “approximately 90%”; in data set [1] (300 nM, Sprague Dawley rat DRG neuron held at −78 mV), “approximately 85%”. Besides, where the note is “male CD-1 mice, 5 mg/kg s.c.”, the “mean Cmax over the mouse DRG Nav1.7 IC50” value worked out at 196 fold. In data set [16] (5 mg/kg), the Cmax came out at 2200 nM. The half-life in [16] (5 mg/kg) is approximately 4.5 h.
`C#CC[C@@H]1NC(=O)[C@@H]2CSSC[C@H](NC(=O)[C@H](Cc3ccc(O)cc3)NC(=O)[C@@H](N)CC#N)C(=O)N[C@@H](CCC(N)=O)C(=O)N[C@@H](CCCCN)C(=O)N[C@@H](Cc3c[nH]c4ccccc34)C(=O)N[C@@H](CCCC)C(=O)N[C@@H](Cc3c[nH]c4ccccc34)C(=O)N[C@@H]([C@@H](C)O)C(=O)N[C@H]3CSSC[C@H](NC(=O)[C@H](CCCNC(=N)N)NC(=O)[C@H](CC(C)C)NC(=O)CNC1=O)C(=O)N[C@@H](CCCCN)C(=O)N[C@@H](CC(C)C)C(=O)N[C@@H](Cc1c[nH]c4ccccc14)C(=O)N[C@H](C(=O)N[C@@H](CCCNC(=N)N)C(=O)N[C@@H](CCCCN)C(=O)N[C@@H](CCC(=O)O)C(=O)N[C@H](C(N)=O)[C@@H](C)CC)CSSC[C@H](NC(=O)[C@H](C)NC(=O)[C@H](CCCNC(=N)N)NC(=O)[C@H](CCCCN)NC(=O)[C@H](CO)NC(=O)[C@H](CC(=O)O)NC3=O)C(=O)N2` [compound 395]: the IC50 was determined as 0.779 nM in [2], 73.2 nM in [5], 15.9 nM in data set [15] and 9.25 nM in data set [1]. Moreover, the Nav1.5/Nav1.7 in data set [3] amounted to 256. In data set [5], the Nav1.6/Nav1.7 was 94. In addition, in data set [15] (TTX-sensitive current in mouse DRG neurons), the “potency relative to wild type peptide, in words” value is reported as “equipotent”. Where the note is “CD-1 male mouse, 2 mg/kg s.c.”, the “mean Cmax over the mouse DRG Nav1.7 IC50” value came out at 46 fold. In addition, the “mean Cmax over the rat DRG Nav1.7” value was determined as 56 fold in data set [17] (1 mg/kg s.c.), 306 fold in data set [17] (3 mg/kg s.c.) and 684 fold in [17] (10 mg/kg s.c.). Further, in data set [17] (Sprague-Dawley rats, 1, 3 or 10 mg/kg single s.c. administration), the tolerability result was “All the doses were tolerated”. Also, the Cmax in data set [16] (2 mg/kg) came to 730 nM; in [18] (1 mg/kg) it was 79 nM; in data set [18] (3 mg/kg), 430 nM; in data set [18] (10 mg/kg), 970 nM. Besides, the half-life in [16] (2 mg/kg) was approximately 2.3 h. For the same compound, the Tmax is 1 h in data set [18] (1 mg/kg), 3 h in data set [18] (3 mg/kg) and 3 h in data set [18] (10 mg/kg).
Consider `Cc1cccc(C)c1OCC(C)N` (stereo not shown) [mexilitine, reference compound], for which the “reversal of thermal hyperalgesia, positive control” value in data set [19] was “sufficient to significantly reverse thermal hyperalgesia”.
